This note sets out measurements from ChEMBL document CHEMBL4842396, “Synthesis of 2-Prenylated Alkoxylated Benzopyrans by Horner-Wadsworth-Emmons Olefination with PPARα/γ Agonist Activity” (ACS Med Chem Lett, 2021).

The species named for one test is Homo sapiens. The test can be described thus: Selectivity for agonist activity at human PPARalpha over agonist activity at human PPARgamma.
Test [1] concerns the target T1, Peroxisome proliferator-activated receptor alpha (Homo sapiens) (UniProt Q07869).
T1 sequence (whole entry): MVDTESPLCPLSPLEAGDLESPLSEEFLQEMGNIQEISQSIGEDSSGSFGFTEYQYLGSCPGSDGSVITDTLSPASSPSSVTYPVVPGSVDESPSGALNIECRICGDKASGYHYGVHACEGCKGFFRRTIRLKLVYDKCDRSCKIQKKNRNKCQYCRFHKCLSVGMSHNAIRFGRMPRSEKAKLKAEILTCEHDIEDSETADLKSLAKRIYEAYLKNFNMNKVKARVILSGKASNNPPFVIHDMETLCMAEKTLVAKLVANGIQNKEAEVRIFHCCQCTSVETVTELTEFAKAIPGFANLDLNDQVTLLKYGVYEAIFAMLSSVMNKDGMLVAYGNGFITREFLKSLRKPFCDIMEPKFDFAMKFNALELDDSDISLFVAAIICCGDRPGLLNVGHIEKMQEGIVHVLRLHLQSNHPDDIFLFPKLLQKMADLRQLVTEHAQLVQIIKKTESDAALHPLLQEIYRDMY
The test can be described thus: Agonist activity at human PPARalpha at 10 uM. The note with it: filed as agonist.

The target of test [2] is T2, Peroxisome proliferator-activated receptor gamma (Homo sapiens) (UniProt P37231).
T2 sequence (whole entry): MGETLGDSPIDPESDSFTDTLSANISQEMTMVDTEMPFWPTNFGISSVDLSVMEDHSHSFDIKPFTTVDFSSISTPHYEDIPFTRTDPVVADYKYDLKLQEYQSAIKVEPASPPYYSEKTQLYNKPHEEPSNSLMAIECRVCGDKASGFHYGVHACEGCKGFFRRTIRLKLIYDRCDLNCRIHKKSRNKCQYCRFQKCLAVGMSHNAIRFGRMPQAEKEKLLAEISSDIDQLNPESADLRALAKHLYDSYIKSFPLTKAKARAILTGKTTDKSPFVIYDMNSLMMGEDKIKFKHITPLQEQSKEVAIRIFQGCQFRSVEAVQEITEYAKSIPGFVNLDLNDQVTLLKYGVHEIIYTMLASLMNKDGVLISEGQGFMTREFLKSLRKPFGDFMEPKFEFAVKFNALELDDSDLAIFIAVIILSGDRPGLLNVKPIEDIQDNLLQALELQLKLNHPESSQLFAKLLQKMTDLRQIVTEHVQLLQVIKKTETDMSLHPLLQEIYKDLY
The test can be described thus: Agonist activity at human PPARgamma at 10 uM. The note with it: filed as agonist.

The source made the active and inactive calls. The rule behind the calls is not given here.

Regarding `CCO/C(=C\CC/C(C)=C/CCC1(C)CCc2cc(OCc3ccccc3)ccc2O1)C(=O)O` (configuration not stated), in the test filed under Homo sapiens, the Selectivity ratio was found to be 0.64. In addition, the outcome in test [1] and in test [2] was Active.
On to `Cc1cccc(Nc2cc(Cl)nc(SCC(=O)O)n2)c1C`, for which the result in test [1] was Active.
For `CCOC(=O)/C(=C/CC/C(C)=C/CCC1(C)CCc2cc(OCc3ccccc3)ccc2O1)OCC(F)(F)F` (configuration not stated), the outcome in test [1] and in test [2] was Active.
Turning to `CCCOc1ccc2c(c1)CCC(C)(CC/C=C(\C)CC/C=C(\OCC)C(=O)OCC)O2` (configuration not stated), the result in test [1] and in test [2] was Active.
Regarding `CC1(CC/C=C(\OCC(F)(F)F)C(=O)O)CCc2cc(OCc3ccccc3)ccc2O1` (configuration not stated), in the test filed under Homo sapiens, the Selectivity ratio was found to be 1.73. For the same compound, the outcome in test [1] and in test [2] was Active.
As for `CCOC(=O)/C(=C/CC/C(C)=C/CCC1(C)CCc2cc(OCc3ccccc3)ccc2O1)OCC` (configuration not stated), the outcome in test [1] and in test [2] was Active.
Consider `CCOC(=O)/C(=C/CCC1(C)CCc2cc(OCc3ccccc3)ccc2O1)OCC(F)(F)F` (configuration not stated), for which the outcome in test [1] and in test [2] was Active.
With `CCOC(=O)/C(=C/CC/C(C)=C/CCC1(C)CCc2cc(OCc3ccc(F)cc3)ccc2O1)OCC` (configuration not stated), the outcome in test [1] and in test [2] was Active.
